Experiments:
[1] = system: AR regulated MMTV promoter; test: MMTV-luciferase reporter response to R1881 in A16 and C13 cells; assay type: cell-based, human; settings: EBP1 knock out cells vs A16, R1881 10^-8 M, p<0.05
Protocol: FIG. 7A-C. Suppression of EBP1 by shRNA promotes a hormone refractory phenotype A. Western blot analysis of Ebp1. Lysates of LNCaP cells stably transduced with a control lentivirus (A16) or an EBP1 targeted shRNA (13C) were collected and resolved by SDS-PAGE. Western blots were probed for endogenous EBP1 or ACTIN as indicated. B. Inhibition of EBP1 expression abrogates the ability of HRG to arrest growth (Left panel) Control and shRNA EBP1 targeted cells were plated in complete media at […] for one day. The next day, cells were switched to steroid reduced-media and HRG added at the indicated concentrations. Total cell numbers were determined seven days later by MTT assay. Each point represents mean±S.E. of 6 wells. Data is representative of three experiments. (Right Panel) AKT phosphorylation in EBP1 knock out cells Control (A16) or EBP 1 knock out cells (C13) were treated with HRG (20 ng/ml) for 15 mm and cell lysates assessed for the presence of phospho and total AKT as indicated. C. […] Sixteen hours later, luciferase activity was measured. […] Lysates of logarithmically growing A16 and C13 cells were resolved by SDS-PAGE and analyzed by Western blotting using antibodies to AGR2 and ACTIN as indicated. […] The viability of the cells was determined by MTT assays 5 days later. […]

AR = AR (Homo sapiens, UniProt P10275, T878A)
Protocol: Luciferase Reporter Assays: Vector control or EBP1-transfected LNCaP (5×10^4) cells were plated in twelve-well plates in complete media. When cells reached 50-60% confluence, they were transfected with 0.5 μg of MMTV-luc using the Fugene-6 reagent (Roche). Cells were also transfected with the RL-TK vector as an internal control. […] Luciferase activity was determined as previously described using a Dual-Luciferase kit (Promega, Madison, Wis.). The activities of renilla luciferase were used to normalize any variations in transfection efficiency. The promoter activities of each plasmid construct were calculated as the firefly-renilla luciferase activity ratios. All transfection experiments were carried out in triplicate wells and repeated three times.

Sequence of AR (P10275 whole entry T878A): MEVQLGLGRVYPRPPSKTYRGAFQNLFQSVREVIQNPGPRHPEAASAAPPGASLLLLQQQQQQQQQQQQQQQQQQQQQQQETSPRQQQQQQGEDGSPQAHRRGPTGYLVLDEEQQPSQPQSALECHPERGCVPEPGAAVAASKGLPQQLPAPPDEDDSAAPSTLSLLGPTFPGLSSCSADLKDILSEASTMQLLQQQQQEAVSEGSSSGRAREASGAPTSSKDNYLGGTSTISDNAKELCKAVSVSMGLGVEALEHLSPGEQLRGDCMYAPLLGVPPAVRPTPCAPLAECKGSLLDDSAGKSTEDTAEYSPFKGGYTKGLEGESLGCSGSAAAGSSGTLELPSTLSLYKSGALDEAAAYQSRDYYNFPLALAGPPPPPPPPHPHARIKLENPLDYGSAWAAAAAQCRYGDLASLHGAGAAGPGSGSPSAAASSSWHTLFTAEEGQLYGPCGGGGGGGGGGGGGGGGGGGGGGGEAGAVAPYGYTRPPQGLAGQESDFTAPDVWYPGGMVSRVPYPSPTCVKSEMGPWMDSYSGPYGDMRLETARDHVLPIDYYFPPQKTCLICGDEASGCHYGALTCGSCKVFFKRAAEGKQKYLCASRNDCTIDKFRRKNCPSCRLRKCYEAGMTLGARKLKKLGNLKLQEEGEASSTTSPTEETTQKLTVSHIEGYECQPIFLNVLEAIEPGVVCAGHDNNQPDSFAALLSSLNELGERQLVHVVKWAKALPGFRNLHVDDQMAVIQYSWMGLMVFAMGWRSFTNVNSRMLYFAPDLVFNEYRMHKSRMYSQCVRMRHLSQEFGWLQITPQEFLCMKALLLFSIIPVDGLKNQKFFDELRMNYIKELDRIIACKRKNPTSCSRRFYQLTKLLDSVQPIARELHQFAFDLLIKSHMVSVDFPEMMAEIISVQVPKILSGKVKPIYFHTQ

In the case of C[C@]1(O)CC[C@H]2[C@@H]3CCC4=CC(=O)CCC4=C3C=C[C@@]21C [R1881], the “transcriptional response of AR regulated MMTV promoter to R1881” value [1] is reported as “enhanced”, the “AR activation (MMTV-luc)” value (AR; LNCaP EPB1 transfectants) is reported as “neither R1881 nor cyproterone acetate nor the combination thereof stimulated AR activation” and the “activation of MMTV-luc luciferase activity” value (AR; LNCaP vector controls, 10^-8 M) is reported as 20 fold.
